Test results reported in ChEMBL document CHEMBL1141234, “Synthesis and SAR of highly potent dual 5-HT1A and 5-HT1B antagonists as potential antidepressant drugs” (Bioorg Med Chem Lett, 2005).
Calls of active or inactive are those of the source. The rule behind the calls is not given here.

Experiments:
[1] = molecular target: 5-hydroxytryptamine receptor 1B (Rattus norvegicus, UniProt P28564); experiment: Binding affinity for rat 5HT1B receptor
[2] = molecular target: T1, 5-hydroxytryptamine receptor 1A (Homo sapiens) (UniProt P08908); experiment: Intrinsic activity for 5HT1A receptor in [35S]GTP-gamma-S assay; format: functional
T1 sequence (whole entry): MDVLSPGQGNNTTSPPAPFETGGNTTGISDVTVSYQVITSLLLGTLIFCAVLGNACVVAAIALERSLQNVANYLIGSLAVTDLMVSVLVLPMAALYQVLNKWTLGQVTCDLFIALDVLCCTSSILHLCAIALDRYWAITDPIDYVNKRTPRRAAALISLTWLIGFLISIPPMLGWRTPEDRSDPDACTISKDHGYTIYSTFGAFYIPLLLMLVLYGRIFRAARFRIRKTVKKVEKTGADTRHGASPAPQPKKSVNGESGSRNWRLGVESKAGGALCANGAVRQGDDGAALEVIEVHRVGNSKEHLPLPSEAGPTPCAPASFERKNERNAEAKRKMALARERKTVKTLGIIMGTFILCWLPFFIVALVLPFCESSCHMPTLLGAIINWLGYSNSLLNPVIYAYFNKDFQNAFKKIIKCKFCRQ

[3] = molecular target: 5-hydroxytryptamine receptor 7 (Homo sapiens, UniProt P34969); experiment: Inhibitory activity against 5HT7 receptor
Sequence of 5-hydroxytryptamine receptor 7 (P34969 whole entry): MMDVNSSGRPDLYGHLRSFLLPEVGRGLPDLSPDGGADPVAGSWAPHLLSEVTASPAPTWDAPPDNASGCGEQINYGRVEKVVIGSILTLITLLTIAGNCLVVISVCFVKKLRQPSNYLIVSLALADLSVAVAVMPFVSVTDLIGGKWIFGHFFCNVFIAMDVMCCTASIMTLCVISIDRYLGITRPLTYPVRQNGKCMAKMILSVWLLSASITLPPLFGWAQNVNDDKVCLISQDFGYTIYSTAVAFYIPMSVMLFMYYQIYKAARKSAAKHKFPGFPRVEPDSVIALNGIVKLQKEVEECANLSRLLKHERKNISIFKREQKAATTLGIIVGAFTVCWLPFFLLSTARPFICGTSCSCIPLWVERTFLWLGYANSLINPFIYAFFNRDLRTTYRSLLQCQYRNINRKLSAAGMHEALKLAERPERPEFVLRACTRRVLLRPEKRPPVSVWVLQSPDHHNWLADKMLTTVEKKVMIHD

[4] = molecular target: T2, Adrenergic receptor alpha-1 (Homo sapiens, UniProt P35348+P25100+P35368); experiment: Inhibitory activity against Adrenergic alpha-1 receptor; format: protein assay
T2 sequence (P35348 whole entry): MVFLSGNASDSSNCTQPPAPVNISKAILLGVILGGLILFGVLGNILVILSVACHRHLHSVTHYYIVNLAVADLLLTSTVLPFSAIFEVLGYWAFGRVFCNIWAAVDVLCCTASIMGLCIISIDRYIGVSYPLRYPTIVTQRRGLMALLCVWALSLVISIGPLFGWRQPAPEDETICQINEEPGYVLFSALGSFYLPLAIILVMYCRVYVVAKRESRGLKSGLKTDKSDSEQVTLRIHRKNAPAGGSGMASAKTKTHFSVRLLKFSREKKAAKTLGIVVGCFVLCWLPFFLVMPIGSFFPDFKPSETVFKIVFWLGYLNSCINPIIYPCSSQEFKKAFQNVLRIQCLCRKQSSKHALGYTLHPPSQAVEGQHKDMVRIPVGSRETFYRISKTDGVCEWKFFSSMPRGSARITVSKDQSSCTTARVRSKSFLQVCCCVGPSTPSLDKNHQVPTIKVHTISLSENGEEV
T2 sequence (P25100 whole entry): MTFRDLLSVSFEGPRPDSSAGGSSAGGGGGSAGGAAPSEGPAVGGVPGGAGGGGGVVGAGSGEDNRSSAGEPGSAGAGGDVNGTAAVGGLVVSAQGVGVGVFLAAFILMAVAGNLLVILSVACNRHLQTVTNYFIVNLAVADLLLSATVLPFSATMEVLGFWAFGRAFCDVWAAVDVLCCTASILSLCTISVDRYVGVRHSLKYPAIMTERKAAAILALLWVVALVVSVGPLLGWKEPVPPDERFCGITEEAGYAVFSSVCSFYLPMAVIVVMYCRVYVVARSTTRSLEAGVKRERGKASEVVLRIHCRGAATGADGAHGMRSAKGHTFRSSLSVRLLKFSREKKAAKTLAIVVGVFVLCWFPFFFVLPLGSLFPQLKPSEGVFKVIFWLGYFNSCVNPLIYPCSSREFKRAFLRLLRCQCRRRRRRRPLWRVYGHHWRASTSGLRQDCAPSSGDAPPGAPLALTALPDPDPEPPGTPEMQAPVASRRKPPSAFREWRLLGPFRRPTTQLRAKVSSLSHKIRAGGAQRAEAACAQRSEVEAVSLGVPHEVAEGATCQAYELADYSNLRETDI
T2 sequence (P35368 whole entry): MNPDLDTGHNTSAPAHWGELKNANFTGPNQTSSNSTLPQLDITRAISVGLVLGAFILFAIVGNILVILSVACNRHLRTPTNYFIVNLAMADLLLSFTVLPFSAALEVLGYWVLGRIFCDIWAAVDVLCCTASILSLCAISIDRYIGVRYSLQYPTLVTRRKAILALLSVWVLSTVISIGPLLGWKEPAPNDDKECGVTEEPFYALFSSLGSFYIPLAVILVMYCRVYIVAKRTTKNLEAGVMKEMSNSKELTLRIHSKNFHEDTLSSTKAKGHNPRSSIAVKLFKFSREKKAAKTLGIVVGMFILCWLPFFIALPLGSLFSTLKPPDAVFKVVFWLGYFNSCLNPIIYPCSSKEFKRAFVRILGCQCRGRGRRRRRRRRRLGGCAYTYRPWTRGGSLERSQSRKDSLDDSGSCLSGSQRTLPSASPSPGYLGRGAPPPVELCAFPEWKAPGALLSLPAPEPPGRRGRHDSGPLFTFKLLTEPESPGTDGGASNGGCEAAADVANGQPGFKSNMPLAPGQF

[5] = molecular target: Sodium-dependent serotonin transporter (Homo sapiens) (UniProt P31645); experiment: Inhibitory activity against SERT upto 10 uM
Sequence of Sodium-dependent serotonin transporter (Homo sapiens) (P31645 whole entry, looked up): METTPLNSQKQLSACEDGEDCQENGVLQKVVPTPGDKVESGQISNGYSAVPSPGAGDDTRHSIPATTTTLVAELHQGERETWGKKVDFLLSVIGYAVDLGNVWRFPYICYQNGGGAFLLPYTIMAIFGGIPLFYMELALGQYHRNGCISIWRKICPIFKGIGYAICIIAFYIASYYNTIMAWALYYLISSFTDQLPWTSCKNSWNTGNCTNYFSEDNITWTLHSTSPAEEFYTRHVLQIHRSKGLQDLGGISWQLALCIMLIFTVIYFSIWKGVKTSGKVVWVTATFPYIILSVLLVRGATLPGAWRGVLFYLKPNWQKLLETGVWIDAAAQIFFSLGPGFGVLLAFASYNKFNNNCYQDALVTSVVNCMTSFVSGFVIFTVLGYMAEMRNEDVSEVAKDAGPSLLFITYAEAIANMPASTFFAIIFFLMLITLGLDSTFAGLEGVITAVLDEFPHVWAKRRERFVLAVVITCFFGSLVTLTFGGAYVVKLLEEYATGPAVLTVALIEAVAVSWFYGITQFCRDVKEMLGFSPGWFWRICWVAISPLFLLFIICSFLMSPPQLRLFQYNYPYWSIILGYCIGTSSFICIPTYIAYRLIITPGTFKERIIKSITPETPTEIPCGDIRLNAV

[6] = molecular target: T3, 5-hydroxytryptamine receptor 1A (Homo sapiens, UniProt P08908); experiment: Displacement of [35S]GTP-gamma-S from human recombinant 5HT1A receptor; format: functional
T3 sequence (P08908 whole entry): T1 sequence (whole entry)

[7] = molecular target: T4, 5-hydroxytryptamine receptor 1B (Homo sapiens, UniProt P28222); experiment: Inhibitory activity against human recombinant 5HT1B receptor co-expressed with G-protein chimera Gqo5 in HEK293 cells by FLIPR; format: functional, cell-based
T4 sequence (P28222 whole entry): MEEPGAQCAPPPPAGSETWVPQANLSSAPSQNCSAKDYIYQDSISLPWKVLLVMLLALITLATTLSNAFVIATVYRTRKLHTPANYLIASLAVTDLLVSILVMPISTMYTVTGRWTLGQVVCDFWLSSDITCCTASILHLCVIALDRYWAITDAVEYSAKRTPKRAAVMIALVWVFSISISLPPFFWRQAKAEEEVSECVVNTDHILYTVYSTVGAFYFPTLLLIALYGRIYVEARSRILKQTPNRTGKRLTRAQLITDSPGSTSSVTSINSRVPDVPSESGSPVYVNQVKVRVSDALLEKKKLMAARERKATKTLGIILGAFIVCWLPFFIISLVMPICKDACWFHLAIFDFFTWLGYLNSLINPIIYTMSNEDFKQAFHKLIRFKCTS

[8] = molecular target: Sodium-dependent dopamine transporter (Homo sapiens) (UniProt Q01959); experiment: Inhibitory activity against DAT upto 10 uM
Sequence of Sodium-dependent dopamine transporter (Homo sapiens) (Q01959 whole entry): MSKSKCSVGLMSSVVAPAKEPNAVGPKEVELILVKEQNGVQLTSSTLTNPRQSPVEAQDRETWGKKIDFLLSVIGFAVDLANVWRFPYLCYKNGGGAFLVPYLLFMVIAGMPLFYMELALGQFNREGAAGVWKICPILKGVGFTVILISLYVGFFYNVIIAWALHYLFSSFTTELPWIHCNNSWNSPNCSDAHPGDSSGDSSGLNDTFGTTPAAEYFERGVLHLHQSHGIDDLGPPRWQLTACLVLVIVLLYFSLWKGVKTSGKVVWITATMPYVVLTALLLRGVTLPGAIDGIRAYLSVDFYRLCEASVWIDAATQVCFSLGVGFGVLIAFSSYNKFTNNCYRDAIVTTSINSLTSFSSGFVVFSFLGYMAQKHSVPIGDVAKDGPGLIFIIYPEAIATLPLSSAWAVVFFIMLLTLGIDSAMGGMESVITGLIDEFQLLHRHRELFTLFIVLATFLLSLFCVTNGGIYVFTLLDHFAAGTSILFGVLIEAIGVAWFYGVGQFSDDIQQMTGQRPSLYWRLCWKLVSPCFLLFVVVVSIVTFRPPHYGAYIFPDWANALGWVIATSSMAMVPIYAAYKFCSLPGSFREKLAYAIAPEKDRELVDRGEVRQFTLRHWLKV

[9] = molecular target: T5, 5-hydroxytryptamine receptor 2C (Homo sapiens, UniProt P28335); experiment: Inhibitory activity against 5HT2C receptor
T5 sequence (P28335 whole entry): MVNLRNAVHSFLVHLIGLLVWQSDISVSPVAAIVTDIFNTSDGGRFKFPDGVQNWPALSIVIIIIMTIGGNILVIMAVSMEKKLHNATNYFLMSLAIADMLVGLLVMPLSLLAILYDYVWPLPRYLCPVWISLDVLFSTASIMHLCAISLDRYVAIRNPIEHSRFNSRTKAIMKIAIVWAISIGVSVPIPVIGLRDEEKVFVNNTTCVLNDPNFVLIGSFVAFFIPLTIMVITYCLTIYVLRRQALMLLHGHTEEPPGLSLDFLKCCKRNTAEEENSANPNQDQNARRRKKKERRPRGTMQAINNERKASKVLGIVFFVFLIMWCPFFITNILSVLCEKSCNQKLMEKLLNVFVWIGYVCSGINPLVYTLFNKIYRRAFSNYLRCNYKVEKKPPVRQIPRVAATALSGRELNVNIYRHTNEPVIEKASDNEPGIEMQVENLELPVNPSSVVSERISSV

[10] = molecular target: Sodium-dependent noradrenaline transporter (Homo sapiens) (UniProt P23975); experiment: Inhibitory activity against NET upto 10 uM
Sequence of Sodium-dependent noradrenaline transporter (Homo sapiens) (P23975 whole entry): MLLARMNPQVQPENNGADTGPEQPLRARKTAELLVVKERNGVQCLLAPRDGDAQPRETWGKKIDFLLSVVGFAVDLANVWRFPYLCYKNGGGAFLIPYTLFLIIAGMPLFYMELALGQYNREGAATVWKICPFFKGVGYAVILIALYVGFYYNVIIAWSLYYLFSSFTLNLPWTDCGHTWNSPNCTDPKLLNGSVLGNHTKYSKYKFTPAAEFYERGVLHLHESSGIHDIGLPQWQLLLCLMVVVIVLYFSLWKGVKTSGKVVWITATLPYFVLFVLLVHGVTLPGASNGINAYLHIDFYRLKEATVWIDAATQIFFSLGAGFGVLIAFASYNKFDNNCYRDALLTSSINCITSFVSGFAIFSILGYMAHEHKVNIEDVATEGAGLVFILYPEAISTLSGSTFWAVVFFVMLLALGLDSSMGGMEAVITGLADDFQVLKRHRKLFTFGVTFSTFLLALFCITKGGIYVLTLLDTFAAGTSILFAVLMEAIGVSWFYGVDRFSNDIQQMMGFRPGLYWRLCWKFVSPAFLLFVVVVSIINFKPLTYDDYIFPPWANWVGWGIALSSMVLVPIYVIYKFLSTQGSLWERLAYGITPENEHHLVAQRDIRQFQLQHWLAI

[11] = molecular target: T4, 5-hydroxytryptamine receptor 1B; experiment: Intrinsic activity for 5HT1B receptor in FLIPR assay; format: functional
[12] = molecular target: T1, 5-hydroxytryptamine receptor 1A (Homo sapiens); experiment: Functional activity in [35S]GTP-gamma-S assay for 5HT1A receptor
D(3) dopamine receptor = D(3) dopamine receptor (Homo sapiens, UniProt P35462); experiment: Inhibitory activity against dopamine D3 receptor
Sequence of D(3) dopamine receptor (P35462 whole entry): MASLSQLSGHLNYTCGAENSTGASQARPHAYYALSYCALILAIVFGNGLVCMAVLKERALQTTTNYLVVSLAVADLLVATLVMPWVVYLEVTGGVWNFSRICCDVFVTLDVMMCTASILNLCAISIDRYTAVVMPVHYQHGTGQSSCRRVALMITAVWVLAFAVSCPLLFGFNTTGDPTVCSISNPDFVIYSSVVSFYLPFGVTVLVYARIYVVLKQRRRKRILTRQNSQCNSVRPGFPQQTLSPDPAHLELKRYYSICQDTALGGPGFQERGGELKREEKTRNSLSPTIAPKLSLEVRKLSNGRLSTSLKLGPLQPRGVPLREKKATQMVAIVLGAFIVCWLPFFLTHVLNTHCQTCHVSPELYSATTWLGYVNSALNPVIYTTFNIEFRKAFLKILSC

[13] = molecular target: T4, 5-hydroxytryptamine receptor 1B; experiment: Functional activity in FLIPR assay for 5HT1B receptor
[14] = molecular target: T6, 5-hydroxytryptamine receptor 1A (Rattus norvegicus, UniProt P19327); experiment: Binding affinity for rat 5HT1A receptor
T6 sequence (P19327 whole entry): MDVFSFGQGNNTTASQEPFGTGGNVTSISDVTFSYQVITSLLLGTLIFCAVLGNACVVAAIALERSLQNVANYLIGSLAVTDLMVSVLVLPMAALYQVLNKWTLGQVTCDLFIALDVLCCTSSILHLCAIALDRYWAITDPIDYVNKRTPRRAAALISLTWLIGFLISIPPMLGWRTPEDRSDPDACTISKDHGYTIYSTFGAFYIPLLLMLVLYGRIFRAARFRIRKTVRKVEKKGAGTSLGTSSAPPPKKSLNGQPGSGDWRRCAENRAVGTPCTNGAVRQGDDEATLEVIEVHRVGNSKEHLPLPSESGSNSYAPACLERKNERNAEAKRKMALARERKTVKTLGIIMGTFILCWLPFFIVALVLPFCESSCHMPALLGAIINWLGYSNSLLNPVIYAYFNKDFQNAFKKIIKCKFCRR

[15] = molecular target: 5-hydroxytryptamine receptor 5A (Homo sapiens, UniProt P47898); experiment: Inhibitory activity against 5HT5A receptor
Sequence of 5-hydroxytryptamine receptor 5A (P47898 whole entry): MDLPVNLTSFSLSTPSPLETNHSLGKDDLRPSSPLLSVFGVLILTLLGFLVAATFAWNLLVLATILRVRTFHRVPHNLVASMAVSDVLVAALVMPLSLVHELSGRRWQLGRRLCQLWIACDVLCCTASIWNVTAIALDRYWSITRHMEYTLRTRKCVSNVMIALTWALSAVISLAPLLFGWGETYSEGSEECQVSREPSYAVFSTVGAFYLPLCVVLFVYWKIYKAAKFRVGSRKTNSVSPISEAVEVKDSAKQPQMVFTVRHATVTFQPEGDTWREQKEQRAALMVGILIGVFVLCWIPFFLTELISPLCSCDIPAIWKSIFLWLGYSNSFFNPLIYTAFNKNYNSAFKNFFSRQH

Sequence of 5-hydroxytryptamine receptor 1B (Rattus norvegicus, UniProt P28564) (P28564 whole entry): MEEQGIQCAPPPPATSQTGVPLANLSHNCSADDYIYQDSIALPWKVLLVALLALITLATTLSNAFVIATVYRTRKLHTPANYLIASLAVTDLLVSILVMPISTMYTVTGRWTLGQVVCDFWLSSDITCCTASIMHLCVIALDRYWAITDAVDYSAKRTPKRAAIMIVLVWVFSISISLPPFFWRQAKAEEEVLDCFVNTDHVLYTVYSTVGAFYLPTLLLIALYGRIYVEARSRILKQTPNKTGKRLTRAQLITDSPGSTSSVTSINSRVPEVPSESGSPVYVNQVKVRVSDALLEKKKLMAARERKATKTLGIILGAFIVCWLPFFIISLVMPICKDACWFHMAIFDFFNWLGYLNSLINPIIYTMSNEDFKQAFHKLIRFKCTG

CN1CCc2c(sc3ncn(CCN4CCN(c5ccnc6ccccc56)CC4)c(=O)c23)C1
Ki [1]: 117 nM | Emax [2]: 6% | Ki [3]: 4.48 µM | Ki [4]: 118.1 nM | Activity [5]: inactive | IC50 [6]: 1300 nM | Ki [6]: 6.5 nM | IC50 [7]: 85 nM | Ki [7]: 9.7 nM | Activity [8]: inactive | Ki [9]: 5.5 µM | Activity [10]: inactive | Emax [11]: 9% | Activity ([12]; filed as antagonist): Antagonist | Ki (D(3) dopamine receptor): 1.3 nM | Activity ([13]; filed as antagonist): Antagonist | Ki [14]: 23 nM | Ki [15]: > 1000 nM

CN1CCc2c(sc3ncn(CCN4CCN(c5cccc6ccncc56)CC4)c(=O)c23)C1
Emax [2]: 10% | Ki [4]: 1.2 nM | Ki [6]: 0.3 nM | Ki [7]: 0.1 nM | Emax [11]: 20% | Activity ([12]; filed as partial agonist): Partial agonist | Activity ([13]; filed as partial agonist): Partial agonist

COc1ccccc1N1CCN(CCn2cnc3sc4c(c3c2=O)CCN(C)C4)CC1
Emax [2]: < 10% | Ki [4]: 0.4 nM | Ki [6]: 0.7 nM | Ki [7]: 1.4 nM | Emax [11]: 20% | Activity ([12]; filed as antagonist): Antagonist | Activity ([13]; filed as partial agonist): Partial agonist

Cc1ccccc1N1CCN(CCn2cnc3sc4c(c3c2=O)CCN(C)C4)CC1
Emax [2]: < 10% | Ki [4]: 1.7 nM | Ki [6]: 2.9 nM | Ki [7]: 3.5 nM | Emax [11]: 20% | Activity ([12]; filed as antagonist): Antagonist | Activity ([13]; filed as partial agonist): Partial agonist

CN1CCc2c(sc3ncn(CCN4CCN(c5nccc6ccccc56)CC4)c(=O)c23)C1
Emax [2]: 10% | Ki [4]: 41.1 nM | Ki [6]: 0.7 nM | Ki [7]: 0.5 nM | Emax [11]: 20% | Activity ([12]; filed as partial agonist): Partial agonist | Activity ([13]; filed as partial agonist): Partial agonist
